Results: patent US9770446B2, “Piperidine urea derivatives” (MERCK PATENT GMBH, priority 2013, dated 2017)

How the values were obtained:
Tankyrase = test: Cellular inhibition of Tankyrase: Axin2 level in DLD1 cells (Luminex); assay type: cell-based; conditions: 24 hours, Axin2 increase, read-out: EC50 [M] TNKS cellular assay
Method: Measurement of Cellular Inhibition of Tankyrase
Since Tankyrases have been described to modulate cellular level of Axin2 (Huang et al., 2009; Nature) the increase of Axin2 level is used as read-out for determination of cellular inhibition of Tankyrases in a Luminex based assay.
Cells of the colon carcinoma cell line DLD1 are plated in 96 well plates with 1.5×10^4 cells per well. Next day, cells are treated with a serial dilution of test compound in seven steps as triplicates with a final DMSO concentration of 0.3%. After 24 hours, cells are lysed in lysis buffer (20 mM Tris/HCl pH 8.0, 150 mM NaCl, 1% NP40, 10% Glycerol) and lysates are cleared by centrifugation through a 96 well filter plate (0.65 μm). Axin2 protein is isolated from cell lysates by incubation with a monoclonal anti-Axin2 antibody (R&D Systems #MAB6078) that is bound to fluorescent carboxybeads. Then, bound Axin2 is specifically detected with a polyclonal anti-Axin2 antibody (Cell Signaling #2151) and an appropriate PE-fluorescent secondary antibody. The amount of isolated Axin2 protein is determined in a Luminex^200 machine (Luminex Corporation) according to the manufacturer's instruction by counting 100 events per well. Inhibition of Tankyrase by test compounds results in higher levels of Axin2 which directly correlates with an increase of detectable fluorescence. As controls cells are treated with solvent alone (neutral control) and with a Tankyrase reference inhibitor IWR-2 (3E-06 M) which refers as control for maximum increase of Axin2. For analysis, the obtained data are normalized against the untreated solvent control and fitted for determination of the EC50 values using the Assay Explorer software (Accelrys).

[1] = target: T1, GST-tagged Tnks-2 (873-1166 aa) (Homo sapiens, UniProt Q9H2K2); test: TNKS2 activity ELISA (autoparsylation assay); assay type: biochemical
T1 construct: GST-tagged Tnks-2 (873-1166 aa, prepared in-house); made in house
Method: (§1) Description of the TNKS1 and TNKS2 ELISA Assay
(§2) Biochemical Activity Testing of TNKS 1 and 2: Activity ELISA (Autoparsylation Assay)
(§3) For analysis of autoparsylation activity of TNKS 1 and 2 an activity ELISA iss performed: In the first step GST tagged TNKS is captured on a Glutathione coated plate. Then the activity assay with biotinylated NAD is performed in the absence/presence of the compounds. During the enzymatic reaction GST tagged TNKS transfers biotinylated ADP-ribose to itself from biotinylated NAD as co-substrate. For the detection streptavidin-HRP conjugate is added that binds to the biotinylated TNKS and is thereby captured to the plates. The amount of biotinylated resp. autoparsylated TNKS is detected with a luminescence substrate for HRP. The level of the luminescence signal correlates directly with the amount of autoparsylated TNKS and therefore with activity of TNKS.
(§4) The activity ELISA is performed in 384 well Glutathione coated microtiter plates (Express capture Glutathione coated plate, Biocat, Heidelberg, Germany). The plates are pre-equilibrated with PBS. Then the plates are incubated with 50 μl 20 ng/well GST-tagged Tnks-1 (1023-1327 aa, prepared in-house), respectively GST-tagged Tnks-2 (873-1166 aa, prepared in-house) in assay buffer (50 mM HEPES, 4 mM Mg-chloride, 0.05% Pluronic F-68, 2 mM DTT, pH 7.7) overnight at 4° C. The plates are washed 3 times with PBS-Tween-20. The wells are blocked by incubation at room temperature for 20 minutes with 50 μl blocking buffer (PBS, 0.05% Tween-20, 0.5% BSA). Afterwards the plates are washed 3 times with PBS-Tween-20. The enzymatic reaction is performed in 50 μl reaction solution (50 mM HEPES, 4 mM Mg-chloride, 0.05% Pluronic F-68, 1.4 mM DTT, 0.5% DMSO, pH 7.7) with 10 μM bio-NAD (Biolog, Life science Inst., Bremen, Germany) as co-substrate in the absence or presence of the test compound (10 dilution concentrations) for 1 hour at 30° C. The reaction is stopped by 3 times washing with PBS-Tween20. For the detection 50 μl of 20 ng/μl Streptavidin, HRP conjugate (MoBiTec, Göttingen, Germany) in PBS/0.05% Tween-20/0.01% BSA are added and the plates are incubated for 30 minutes at room temperature. After three times washing with PBS-Tween-20 50 μl of SuperSignal ELISA Femto Maximum sensitivity substrate solution (ThermoFisherScientific (Pierce), Bonn, Germany) are added. Following a 1 minute incubation at room temperature luminescence signals are measured with an Envision multimode reader (Perkin Elmer LAS Germany GmbH) at 700 nm. The full value used is the inhibitor-free reaction. The pharmacological zero value used is XAV-939 (Tocris) in a final concentration of 5 μM. The inhibitory values (IC50) are determined using either the program Symyx Assay Explorer® or Condosseo® from GeneData.

[2] = target: T2, GST-tagged Tnks-1 (1023-1327 aa) (Homo sapiens, UniProt O95271); test: TNKS1 activity ELISA (autoparsylation assay); assay type: biochemical
T2 construct: GST-tagged Tnks-1 (1023-1327 aa, prepared in-house); made in house
Method: as §1, §2, §3, §4

[3] = target: T3, GST-tagged Tankyrase-2 (873-1166 aa) (Homo sapiens, UniProt Q9H2K2); test: Tankyrase 2 autoparsylation HTRF enzyme assay; assay type: biochemical; conditions: read-out: IC50 TNKS2 enzyme assay
T3 construct: GST-tagged Tankyrase-2 (873-1166 aa)
Method: (§5) Biochemical activity testing of Tankyrase 1 and 2: Autoparsylation assay
(§6) The autoparsylation assay is run in two steps: the enzymatic reaction in which GST-tagged Tankyrase-1, resp Tankyrase-2 transferred biotinylated ADP-ribose to itself from biotinylated NAD as co-substrate and the detection reaction where a time resolved FRET between cryptate labelled anti-GST bound to the GST tag of the enzyme and Xlent® labelled-streptavidin bound the biotin-parsylation residue is analysed. The autoparsylation activity was detectable directly via the increase in HTRF signal.
(§7) The autoparsylation assay is performed as 384-well HTRF® (Cisbio, Codolet, France) assay format in Greiner low volume nb 384-well microtiter plates and is used for high throughput screen. 250 nM GST-tagged Tankyrase-1 (1023-1327 aa), respectively about 250 nM GST-tagged Tankyrase-2 (873-1166 aa) and 5 μM bio-NAD (Biolog, Life science Inst., Bremen, Germany) as co-substrate are incubated in a total volume of 5 μl (50 mM HEPES, 4 mM Mg-chloride, 0.05% Pluronic F-68, 1.4 mM DTT, 0.5% DMSO, pH 7.7) in the absence or presence of the test compound (10 dilution concentrations) for 90 min at 30° C. The reaction is stopped by the addition of 1 μl 50 mM EDTA solution. 2 μl of the detection solution (1.6 μM SA-Xlent® (Cisbio, Codolet, France), 7.4 nM Anti-GST-K® (Eu-labelled anti-GST, Cisbio, Codolet, France) in 50 mM HEPES, 800 mM KF, 0.1% BSA, 20 mM EDTA, 0.1% CHAPS, pH 7.0) are added. After 1 h incubation at room temperature the HTRF is measured with an Envision multimode reader (Perkin Elmer LAS Germany GmbH) at excitation wavelength 340 nm (laser mode) and emission wavelengths 615 nm and 665 nm. The ratio of the emission signals is determined. The full value used is the inhibitor-free reaction. The pharmacological zero value used is XAV-939 (Tocris) in a final concentration of 5 μM. The inhibitory values (IC50) are determined using either the program Symyx Assay Explorer® or Condosseo® from GeneData.

[4] = target: T4, GST-tagged Tankyrase-1 (1023-1327 aa) (Homo sapiens, UniProt O95271); test: Tankyrase 1 autoparsylation HTRF enzyme assay; assay type: biochemical; conditions: read-out: IC50 TNKS1 enzyme assay
T4 construct: GST-tagged Tankyrase-1 (1023-1327 aa)
Method: as §5, §6, §7

T3 sequence (Q9H2K2 873-1166): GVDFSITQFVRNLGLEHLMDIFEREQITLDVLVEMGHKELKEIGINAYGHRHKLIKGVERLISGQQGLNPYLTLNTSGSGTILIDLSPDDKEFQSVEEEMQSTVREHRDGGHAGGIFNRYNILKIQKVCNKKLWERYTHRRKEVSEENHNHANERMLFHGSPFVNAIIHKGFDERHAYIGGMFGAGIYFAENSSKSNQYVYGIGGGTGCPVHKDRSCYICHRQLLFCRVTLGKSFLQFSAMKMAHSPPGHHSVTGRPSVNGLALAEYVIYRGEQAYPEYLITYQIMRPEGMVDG
T1 sequence (Q9H2K2 873-1166): as above
T4 sequence (O95271 1023-1327): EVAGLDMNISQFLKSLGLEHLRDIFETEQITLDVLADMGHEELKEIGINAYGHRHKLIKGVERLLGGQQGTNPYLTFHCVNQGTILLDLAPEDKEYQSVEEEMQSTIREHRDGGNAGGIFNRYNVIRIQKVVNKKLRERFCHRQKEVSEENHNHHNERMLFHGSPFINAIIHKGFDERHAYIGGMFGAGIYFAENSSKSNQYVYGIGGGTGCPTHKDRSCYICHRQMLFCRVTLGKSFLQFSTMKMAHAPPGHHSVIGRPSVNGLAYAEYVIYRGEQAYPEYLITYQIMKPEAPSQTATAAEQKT
T2 sequence (O95271 1023-1327): as above

Row | Structure (SMILES) | EC50 (Tankyrase) | IC50 [1] | IC50 [2] | IC50 [3] | IC50 [4]
1 | COc1cccc(N(C)C(=O)N2CCC(C(=O)c3ccccc3)CC2)c1 [Compound A3, 4-benzoyl-piperidine-1-carboxylic acid (3-methoxy-phenyl)-methyl-amide] | 3e-07 to 3e-06 M | < 300 nM | < 300 nM | 300 to 3000 nM | 300 to 3000 nM
2 | COc1ccc(N(C)C(=O)N2CCC(C(=O)c3ccc(Cl)cc3)CC2)cc1 [Compound A9, 4-(4-chloro-benzoyl)-piperidine-1-carboxylic acid (4-methoxy-phenyl)-methylamide] | 3e-07 to 3e-06 M | < 300 nM | < 300 nM | 300 to 3000 nM | < 300 nM
3 | CN(C(=O)N1CCC(C(=O)c2ccccc2)CC1)c1cccc(C#N)c1 [Compound A10, 4-benzoyl-piperidine-1-carboxylic acid (3-cyano-phenyl)-methyl-amide] | 3e-06 to 5e-05 M | < 300 nM | 300 to 3000 nM | 3000 to 50000 nM | 300 to 3000 nM
4 | CN(C(=O)N1CCC(C(=O)c2ccccc2)CC1)c1ccc(C#N)cc1 [Compound A11, 4-benzoyl-piperidine-1-carboxylic acid (4-cyano-phenyl)-methyl-amide] | 3e-07 to 3e-06 M | < 300 nM | < 300 nM | 300 to 3000 nM | 300 to 3000 nM
5 | CN(C(=O)N1CCC(C(=O)c2ccccc2)CC1)c1cccc(F)c1 [Compound A12, 4-benzoyl-piperidine-1-carboxylic acid (3-fluoro-phenyl)-methyl-amide] | 3e-07 to 3e-06 M | < 300 nM | < 300 nM | 300 to 3000 nM | 300 to 3000 nM
6 | O=C(c1cccc(F)c1)C1CCN(C(=O)N2CCc3ccccc32)CC1 [Compound A19, (2,3-dihydro-indol-1-yl)-[4-(3-fluoro-benzoyl)-piperidin-1-yl]-methanone] | 3e-06 to 5e-05 M | < 300 nM | < 300 nM | 300 to 3000 nM | 300 to 3000 nM
7 | O=C(c1ccc(F)cc1)C1CCN(C(=O)N2CCc3ccccc32)CC1 [Compound A20, (2,3-dihydro-indol-1-yl)-[4-(4-fluoro-benzoyl)-piperidin-1-yl]-methanone] | 3e-06 to 5e-05 M | < 300 nM | < 300 nM | 300 to 3000 nM | 300 to 3000 nM
8 | O=C(c1ccc(Cl)cc1)C1CCN(C(=O)N2CCc3ccccc32)CC1 [Compound A21, [4-(4-chloro-benzoyl)-piperidin-1-yl]-(2,3-dihydro-indol-1-yl)-methanone] | 3e-06 to 5e-05 M | < 300 nM | 300 to 3000 nM | 300 to 3000 nM | 300 to 3000 nM
9 | CN(C(=O)N1CCC(C(=O)c2ccc(-c3cnn(CCN4CCCC4)c3)cc2)CC1)c1ccc(-c2cnn(CCN3CCCC3)c2)cc1 [Compound A37, 4-{4-[1-(2-pyrrolidin-1-yl-ethyl)-1H-pyrazol-4-yl]-benzoyl}-piperidine-1-carboxylic acid methyl-{4-[1-(2-pyrrolidin-1-yl-ethyl)-1H-pyrazol-4-yl]-phenyl}-amide] | 3e-07 to 3e-06 M | < 300 nM | < 300 nM |  | 
10 | CCN(C(=O)N1CCC(C(=O)c2ccc(OC)nc2)CC1)c1ccc(OC)cc1 [Compound A43, N-ethyl-N-(4-methoxyphenyl)-4-(6-methoxypyridine-3-carbonyl)piperidine-1-carboxamide] | < 3e-07 M | < 300 nM | < 300 nM |  | 
11 | COc1ccc(N(C)C(=O)N2CCC(C(=O)c3ccccc3)CC2)cn1 [Compound A44, 4-benzoyl-N-(6-methoxy-3-pyridyl)-N-methyl-piperidine-1-carboxamide] | 3e-07 to 3e-06 M | < 300 nM | < 300 nM |  | 
12 | CCn1cc(-c2ccc(C(=O)C3CCN(C(=O)N(C)c4ccc(OC)nc4)CC3)cc2)cn1 [Compound A48, 4-[4-(1-ethylpyrazol-4-yl)benzoyl]-N-(6-methoxy-3-pyridyl)-N-methyl-piperidine-1-carboxamide] | 3e-07 to 3e-06 M | < 300 nM | < 300 nM |  | 
13 | COc1ccc(N(C)C(=O)N2CCC(C(=O)c3ccc(OC)c(C)c3)CC2)cn1 [Compound A52, 4-(4-methoxy-3-methyl-benzoyl)-N-(6-methoxy-3-pyridyl)-N-methyl-piperidine-1-carboxamide] | < 3e-07 M | < 300 nM | < 300 nM |  | 
14 | COc1ccc(N(C)C(=O)N2CCC(C(=O)c3ccc(OC)nc3)CC2)cc1 [Compound A53, N-(4-methoxyphenyl)-4-(6-methoxypyridine-3-carbonyl)-N-methyl-piperidine-1-carboxamide] | 3e-07 to 3e-06 M | < 300 nM | < 300 nM |  | 
15 | CCn1cc(-c2ccc(C(=O)C3CCN(C(=O)N(C)c4ccc(-c5cnn(CC)c5)cc4)CC3)cc2)cn1 [Compound A57, 4-[4-(1-Ethyl-1H-pyrazol-4-yl)-benzoyl]-piperidine-1-carboxylic acid [4-(1-ethyl-1H-pyrazol-4-yl)-phenyl]-methyl-amide] | < 3e-07 M | < 300 nM | < 300 nM |  | 
